Tests used:
[1] = system: SNU-449 (Hepatocellular Carcinoma); assay: Bliss excess, mean over the matrix (fraction); higher = more synergy
Summary of the method: (§1)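 Cell lines grown in DMEM/F12 or RPMI with 10% FBS were plated in 1536-well plates and held 24 hours at 37°C, 5% CO2 before 72 hours of exposure to two-drug dose matrices, with DMSO typically at 0.2%. CellTiter-Glo 2.0 luminescence gave viability, which was converted to inhibition. Vehicle wells were set to 0 and blank wells to 1. Combination Emax is the second-highest inhibition in the matrix, and Bliss excess is the observed combination effect minus the expected EA + EB − EA·EB, where EA and EB are the single-agent effects.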

[2] = system: SW1710 (Bladder Carcinoma); assay: as above
Summary of the method: as §1

[3] = system: YAPC (Pancreatic Carcinoma); assay: as above
Summary of the method: as §1

[4] = system: NCI-H209 (Small Cell Lung Carcinoma); assay: as above
Summary of the method: as §1

NCI-H2052 (Mesothelioma) = assay: as above
Summary of the method: as §1

[5] = system: SNU-16 (Gastric Carcinoma); assay: as above
Summary of the method: as §1

[6] = system: BFTC-909 (Kidney Carcinoma); assay: as above
Summary of the method: as §1

[7] = system: NCI-H1568 (Lung Adenocarcinoma); assay: as above
Summary of the method: as §1

MPP-89 (Mesothelioma) = assay: as above
Summary of the method: as §1

[8] = system: NCI-H524 (Small Cell Lung Carcinoma); assay: as above
Summary of the method: as §1

[9] = system: Detroit562 (Head and Neck Carcinoma); assay: as above
Summary of the method: as §1

A673 (Ewing's Sarcoma) [10] = assay: as above
Summary of the method: as §1

GAMG (Glioblastoma) = assay: as above
Summary of the method: as §1

[11] = system: SW1573 (Lung Adenocarcinoma); assay: as above
Summary of the method: as §1

[12] = system: CAL-33 (Oral Cavity Carcinoma); assay: as above
Summary of the method: as §1

[13] = system: SNU-449 (Hepatocellular Carcinoma); assay: combination Emax (second highest fraction inhibited in the dose matrix, 72 h); higher = more inhibition; extreme values may be limits of the assay
Summary of the method: as §1

[14] = system: SW1710 (Bladder Carcinoma); assay: as above
Summary of the method: as §1

[15] = system: BFTC-909 (Kidney Carcinoma); assay: as above
Summary of the method: as §1

KS-1 (Glioblastoma) = assay: as above
Summary of the method: as §1

A673 (Ewing's Sarcoma) [16] = assay: as above
Summary of the method: as §1
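For Bliss excess, mean over the matrix in this document: after 72 h of two-drug dosing.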

SMILES	Bliss excess [1]	Bliss excess [2]	Bliss excess [3]	Bliss excess [4]	Bliss excess (NCI-H2052 (Mesothelioma))	Bliss excess [5]	Bliss excess [6]	Bliss excess [7]	Bliss excess (MPP-89 (Mesothelioma))	Bliss excess [8]	Bliss excess [9]	Bliss excess (A673 (Ewing's Sarcoma) [10])	Bliss excess (GAMG (Glioblastoma))	Bliss excess [11]	Bliss excess [12]	combination Emax [13]	combination Emax [14]	combination Emax [15]	combination Emax (KS-1 (Glioblastoma))	combination Emax (A673 (Ewing's Sarcoma) [16])
NC1(C(=O)N[C@@H](CCO)c2ccc(Cl)cc2)CCN(c2ncnc3[nH]ccc23)CC1 [Capivasertib] + COc1nnc2ccc(N3CCC(c4ccc(OCCN5CCN(C)C(=O)[C@H]5C)cc4)CC3)nn12 [AZD5153] (first compound max 10 µM, 7x7, partner max 1 µM)	0.0058	0.0751	0.007	-0.0007	0.0133	0.0344	0.0433	-0.0032	-0.0632	-0.0155	-0.0212	-0.0386	0.039	-0.0278	0.051	0.224	0.587	0.678	0.755	0.434
NC1(C(=O)N[C@@H](CCO)c2ccc(Cl)cc2)CCN(c2ncnc3[nH]ccc23)CC1 [Capivasertib] + C[C@@H]1COCCN1C2=NC(=NC(=C2)C3(CC3)[S@](=N)(=O)C)C4=C5C=CNC5=NC=C4 [AZD6738] (first compound max 10 µM, 7x7, partner max 10 µM)	-0.0057	-0.0403	0.0093	-0.0054	-0.0657	-0.0208	-0.0878	-0.0216	-0.0166	-0.0086	-0.0137	0.0077	-0.0558	-0.0915	-0.0246	0.262	0.596	0.869	0.653	0.804
NC1(C(=O)N[C@@H](CCO)c2ccc(Cl)cc2)CCN(c2ncnc3[nH]ccc23)CC1 [Capivasertib] + Cn1cnc2c(F)c(Nc3ccc(Br)cc3Cl)c(C(=O)NOCCO)cc21 [Selumetinib] (first compound max 10 µM, 7x7, partner max 10 µM)	-0.0113	0.0396	0.03	-0.0108	-0.0031	0.0151	0.0531	-0.055	-0.0188	0.0158	0.0993	0.0877	0.0408	-0.0111	0.0926	0.205	0.409	0.734	0.551	0.469
COc1cccc2c1C(=O)c1c(O)c3c(c(O)c1C2=O)C[C@@](O)(C(=O)CO)C[C@@H]3O[C@H]1C[C@H](N)[C@H](O)[C@H](C)O1 [Doxorubicin] + Cc1cc2ncnn2cc1Nc1ncc2c(n1)n(C1CCOCC1)c(=O)n2C [AZD7648] (first compound max 1 µM, 7x7, partner max 10 µM)	-0.0358	0.0569	-0.0304	0.129	0.0122	0.0506	0.0402	-0.0357	0.0691	0.145	0.103	0.0816	0.0479	-0.0042	0.0998	0.173	0.665	0.853	0.619	0.888
CS(=O)(=O)CCNCc1ccc(-c2ccc3ncnc(Nc4ccc(OCc5cccc(F)c5)c(Cl)c4)c3c2)o1 [Lapatinib] + C[C@@H](Oc1cc(-c2cnn(C3CCNCC3)c2)cnc1N)c1c(Cl)ccc(F)c1Cl [Crizotinib] (first compound max 10 µM, 7x7, partner max 10 µM)	-0.0453	-0.078	-0.0168	-0.003	-0.0676	-0.0151	-0.0651	-0.0174	-0.0762	-0.037	0.0107	-0.0546	-0.0277	-0.0788	-0.0247	0.827	0.846	0.869	0.79	0.808
CC(=O)c1c(C)c2cnc(Nc3ccc(N4CCNCC4)cn3)nc2n(C2CCCC2)c1=O [Palbociclib] + CC1(C)CCC(CN2CCN(c3ccc(C(=O)NS(=O)(=O)c4ccc(NCC5CCOCC5)c([N+](=O)[O-])c4)c(Oc4cnc5[nH]ccc5c4)c3)CC2)=C(c2ccc(Cl)cc2)C1 [Venetoclax] (first compound max 10 µM, 7x7, partner max 1 µM)	-0.0153	0.0152	-0.0109	0.0824	-0.0432	-0.0161	0.0244	-0.0506	-0.0484	-0.0732	0.0008	-0.0426	-0.0097	-0.0108	-0.022	0.272	0.246	0.326	0.348	0.136
CC(=O)c1c(C)c2cnc(Nc3ccc(N4CCNCC4)cn3)nc2n(C2CCCC2)c1=O [Palbociclib] + Cc1c2c(nn1C)CSCc1cc(n(C)n1)CSc1cc(c3ccccc3c1)OCCCc1c(C(=O)O)n(C)c3c-2c(Cl)ccc13 [AZD5991] (first compound max 10 µM, 7x7, partner max 1 µM)	-0.0187	-0.0405	-0.0037	-0.0107	-0.0298	-0.0089	0.0029	-0.0149	-0.021	0.0019	-0.0131	-0.0903	-0.0142	-0.0431	0.016	0.335	0.29	0.406	0.266	0.453

— the supplement of paper PMC11061612
